Results from US4062973A, “Sulfur-containing derivatives of cyclohexylphenyl-ethane” (Boehringer Ingelheim GmbH, priority 1975, dated 1977).
Read-outs that look alike come from different tables or passages of the source.

Columns and labels:
mice = test: Determination of the prolongation of the bleeding time; format: in vivo; details: 10 mgm/kg orally, awake mice, compared with untreated control group
Protocol: 2. determination of the prolongation of the bleeding time:
To determine the effect on the bleeding time, 10 mgm/kg of the test compound were administered orally to awake, unanesthetized mice. After 1 hour, and again after 3 hours, about 0.5 mm from the end of the tail of each animal was cut off, and the exuded blood was carefully soaked up into filter paper every 30 seconds. The number of drops of blood so obtained provided a measure for the bleeding time (5 animals/experiment).
The numbers in Table II represent the prolongation in %, compared with an untreated control group: […]

[1] = Acute toxicity in white mice after oral application of a single dose; format: in vivo; details: mouse, in vivo, observation time 14 days
Protocol: (§1) The acute toxicity of the compounds was determined in white mice (observation time: 14 days) after oral application of a single dose: […]

white mice = test: as above; format: in vivo; details: 1000 mgm/kg, observation time 14 days
Protocol: as §1

[2] = tested on: platelet-rich plasma of healthy human donors; test: Determination of platelet aggregation by the method of Born and Cross (collagen-induced, platelet-rich plasma); format: cell-based; details: 10^-4 mol/lit., compared with control batch without test compound; for inhibition at 100 µM: Homo sapiens, Platelet
Protocol: 1. Determination of platelet aggregation by the method of Born and Cross (see J. Physiol. 170, 397 (1964)):
The platelet aggregation was measured in the platelet-rich plasma of healthy human donors. The alterations of the optical density of the platelet suspension was measured and recorded photometrically after the addition of commercial collagen manufactured by Hormonchemie, Munich, Germany, containing 1 mgm of collagen fibrils per ml. From the angle of inclination of the density curve, the rate of aggregation was estimated (Vmax). The optical density (O.D.) was taken at the point on the curve where the most light was transmitted. Small doses of collagen were chosen, but sufficient to give irreversible aggregation. To provoke maximum aggregation, about 0.01 ml of the collagen solution was added to 1 ml of platelet-rich plasma.
The numbers in Table I represent the % reduction in the aggregation rate (Vmax) and the % change in optical density (O.D.), compared with a control batch without addition of a test compound.

[3] = read-out: % Reduction (change) in optical density (O.D.)
[4] = read-out: % Reduction in the aggregation rate (Vmax)

| SMILES | Prolongation of the bleeding time in % after 1 hour (mice) | Prolongation of the bleeding time in % after 3 hours (mice) | LD50 at 336 h [1] | Acute toxicity: animals died (white mice) | inhibition at 100 µM [2, 3] | inhibition at 100 µM [2, 4] | % Reduction (change) in optical density (O.D.) ([2]; 100 µM) | % Reduction in the aggregation rate (Vmax) ([2]; 100 µM) |
| --- | --- | --- | --- | --- | --- | --- | --- | --- |
| COC(=O)C[S+]([O-])C(C)c1ccc(C2CCCCC2)cc1 (stereo not drawn) [B, methyl [1-(4'-cyclohexyl-phenyl)-ethylsulfinyl]-acetate] | 117% | 51% | > 1000 mg/kg | 0 out of 10 | – | – | – | – |
| COC(=O)C[S+]([O-])C(C)c1ccc(C2CCCCC2)c(Cl)c1 (stereo not drawn) [C, methyl [1-(3'-chloro-4'-cyclohexyl-phenyl)-ethylsulfinyl]-acetate] | – | – | – | – | 89% | 85% | – | – |
| CC(c1ccc(C2CCCCC2)cc1)[S+]([O-])CC(=O)O (stereo not drawn) [Compound A, [1-(4'-cyclohexyl-phenyl)-ethylsulfinyl]-acetic acid] | 300% | 122% | > 1000 mg/kg | 0 out of 10 | – | – | – | – |
| CCOC(=O)C[S+]([O-])C(C)c1ccc(C2CCCCC2)c(Cl)c1 (stereo not drawn) [D, Ethyl [1-(3'-chloro-4'-cyclohexyl-phenyl)-ethylsulfinyl]-acetate] | 49% | – | – | – | – | – | 89% | 87% |
| CC(c1ccc(C2CCCCC2)c(Cl)c1)[S+]([O-])CC(=O)N1CCCCC1 (stereo not drawn) [E, [1-(3'-chloro-4'-cyclohexyl-phenyl)-ethylsulfinyl]-acetic acid piperidide] | 37% | – | > 1000 mg/kg | 0 out of 10 | 92% | 90% | – | – |
